# Patent publication US7507739B2, “6-[(substituted)phenyl]triazolopyrimidines as anticancer agents” (Wyeth, priority 2003, dated 2009)
# Marks after values point to notes of the source that are not given here.
# How the values were obtained:
# HeLa cells = experiment: Cell cycle analysis with HeLa cells; assay type: cell-based, human; details: 18 hr
# Protocol: HeLa cells are harvested by trypsinization, washed, counted and distributed to wells of 12-well plates at 125,000 cells per well in 2 mL medium. Cells are cultured overnight. […] Cells are continued in culture for 18 hr after compound addition, then cells in each well are harvested (taking care to recover both adherent and non-adherent cells) and processed using the CycleTEST PLUS kit (Becton Dickinson Immunocytometry Systems, San Jose, Calif.). Flow cytometry is done with a FACSort instrument (Becton Dickinson).
# This procedure measures the percentages of cells in a population that are in the G1, S, and G2/M phases of the cell cycle. It utilizes staining of cell nuclei with propidium iodide and analysis by flow cytometry.
# [1] = system: A549 Human Non-Small Cell Lung Carcinoma; experiment: Human tumor xenograft test, A549; assay type: in vivo, athymic mice; details: days 1, 5, 9, 13, 17, 21, 25, 29
# Protocol: (§1) The ability of compounds of this invention to inhibit tumor growth in animals is studied in the athymic mouse xenograft standard pharmacological test. Female nu/nu mice in an outbred albino background are obtained from Charles River Laboratories (Wilmington, Mass.). Animals are injected subcutaneously on the flank with the desired tumor cell suspension. Several days later, mice with tumors of approximately 150 mm^3 are selected from those injected (staged) and randomly distributed into groups of 5-10. The day of staging is called day 0. Compounds of the invention, usually formulated in saline (exceptions are noted in tables), are administered to animals by intravenous injection or oral gavage on various schedules starting on day 0 or 1, as noted in the tables. The control group in each experiment is dosed with vehicle on the same schedule. Tumor size is measured every 3-7 days with calipers in two orthogonal dimensions, and tumor volume is calculated from the formula volume=[(length×width^2)/2].
# (§2) Tumor/Control (T/C) is obtained by dividing the mean tumor volume of the treated group by the mean tumor volume of the control group on each measurement day. A treatment dose is defined as active if it produced a statistically significant T/C of 0.50 or less. A p value≦0.05, determined by one-side Student's t-test, is required for statistical significance. A treatment dose is defined as toxic if more than 10% of the animals died from a compound-related toxicity.
# [2] = system: LoVo Human Colon Carcinoma; experiment: Human tumor xenograft test, LoVo; assay type: in vivo, athymic mice; details: for T/C on day 0 / T/C on day 7 / T/C on day 14 / T/C on day 21 / T/C on day 28 / T/C on day 35: days 1, 7, 14
# Protocol: as §1, §2
smiles,measurement,setting,value
"CN(C)CCCOc1cc(F)c(-c2c(Cl)nc3ncnn3c2NCC(F)(F)F)c(F)c1.Cl [Example 4a, 5-Chloro-6-{4-[3-(dimethylamino)propoxy]-2,6-difluorophenyl}-N-(2,2,2-trifluoroethyl)[1,2,4]triazolo[1,5-a]pyrimidin-7-amine Hydrogen chloride Salt]",Percent in Cell Cycle Phase >4N,HeLa cells; 20 nM,2%
same,Percent in Cell Cycle Phase Apop,HeLa cells; 20 nM,6%
same,Percent in Cell Cycle Phase G1,HeLa cells; 20 nM,60%
same,Percent in Cell Cycle Phase G2/M,HeLa cells; 20 nM,15%
same,Percent in Cell Cycle Phase S,HeLa cells; 20 nM,17%
same,Percent in Cell Cycle Phase >4N,HeLa cells; 30 nM,1%
same,Percent in Cell Cycle Phase Apop,HeLa cells; 30 nM,44%
same,Percent in Cell Cycle Phase G1,HeLa cells; 30 nM,29%
same,Percent in Cell Cycle Phase G2/M,HeLa cells; 30 nM,15%
same,Percent in Cell Cycle Phase S,HeLa cells; 30 nM,12%
same,Percent in Cell Cycle Phase >4N,HeLa cells; 40 nM,2%
same,Percent in Cell Cycle Phase Apop,HeLa cells; 40 nM,65%
same,Percent in Cell Cycle Phase G1,HeLa cells; 40 nM,8%
same,Percent in Cell Cycle Phase G2/M,HeLa cells; 40 nM,17%
same,Percent in Cell Cycle Phase S,HeLa cells; 40 nM,8%
same,Percent in Cell Cycle Phase >4N,HeLa cells; 50 nM,2%
same,Percent in Cell Cycle Phase Apop,HeLa cells; 50 nM,54%
same,Percent in Cell Cycle Phase G1,HeLa cells; 50 nM,6%
same,Percent in Cell Cycle Phase G2/M,HeLa cells; 50 nM,29%
same,Percent in Cell Cycle Phase S,HeLa cells; 50 nM,9%
same,Percent in Cell Cycle Phase >4N,HeLa cells; 60 nM,2%
same,Percent in Cell Cycle Phase Apop,HeLa cells; 60 nM,64%
same,Percent in Cell Cycle Phase G1,HeLa cells; 60 nM,13%
same,Percent in Cell Cycle Phase G2/M,HeLa cells; 60 nM,15%
same,Percent in Cell Cycle Phase S,HeLa cells; 60 nM,8%
same,Percent in Cell Cycle Phase >4N,HeLa cells; 70 nM,4%
same,Percent in Cell Cycle Phase Apop,HeLa cells; 70 nM,25%
same,Percent in Cell Cycle Phase G1,HeLa cells; 70 nM,3%
same,Percent in Cell Cycle Phase G2/M,HeLa cells; 70 nM,60%
same,Percent in Cell Cycle Phase S,HeLa cells; 70 nM,8%
same,Percent in Cell Cycle Phase >4N,HeLa cells; 80 nM,5%
same,Percent in Cell Cycle Phase Apop,HeLa cells; 80 nM,20%
same,Percent in Cell Cycle Phase G1,HeLa cells; 80 nM,5%
same,Percent in Cell Cycle Phase G2/M,HeLa cells; 80 nM,63%
same,Percent in Cell Cycle Phase S,HeLa cells; 80 nM,7%
same,Percent in Cell Cycle Phase >4N,HeLa cells; 90 nM,5%
same,Percent in Cell Cycle Phase Apop,HeLa cells; 90 nM,22%
same,Percent in Cell Cycle Phase G1,HeLa cells; 90 nM,5%
same,Percent in Cell Cycle Phase G2/M,HeLa cells; 90 nM,59%
same,Percent in Cell Cycle Phase S,HeLa cells; 90 nM,10%
same,Percent in Cell Cycle Phase >4N,HeLa cells; 100 nM,5%
same,Percent in Cell Cycle Phase Apop,HeLa cells; 100 nM,23%
same,Percent in Cell Cycle Phase G1,HeLa cells; 100 nM,7%
same,Percent in Cell Cycle Phase G2/M,HeLa cells; 100 nM,57%
same,Percent in Cell Cycle Phase S,HeLa cells; 100 nM,9%
same,Percent in Cell Cycle Phase >4N,HeLa cells; 110 nM,5%
same,Percent in Cell Cycle Phase Apop,HeLa cells; 110 nM,23%
same,Percent in Cell Cycle Phase G1,HeLa cells; 110 nM,6%
same,Percent in Cell Cycle Phase G2/M,HeLa cells; 110 nM,56%
same,Percent in Cell Cycle Phase S,HeLa cells; 110 nM,10%
same,Percent in Cell Cycle Phase >4N,HeLa cells; 120 nM,4%
same,Percent in Cell Cycle Phase Apop,HeLa cells; 120 nM,27%
same,Percent in Cell Cycle Phase G1,HeLa cells; 120 nM,7%
same,Percent in Cell Cycle Phase G2/M,HeLa cells; 120 nM,53%
same,Percent in Cell Cycle Phase S,HeLa cells; 120 nM,10%
same,T/C on day 0,"[1]; A549, 10 mg/kg IV",0.98
same,T/C on day 7,"[1]; A549, 10 mg/kg IV",0.81
same,T/C on day 14,"[1]; A549, 10 mg/kg IV",0.74
same,T/C on day 21,"[1]; A549, 10 mg/kg IV",0.68
same,T/C on day 27,"[1]; A549, 10 mg/kg IV",0.80
same,T/C on day 35,"[1]; A549, 10 mg/kg IV",0.79
same,T/C on day 0,"[1]; A549, 20 mg/kg IV",0.99
same,T/C on day 7,"[1]; A549, 20 mg/kg IV",0.86
same,T/C on day 14,"[1]; A549, 20 mg/kg IV",0.80
same,T/C on day 21,"[1]; A549, 20 mg/kg IV",0.72
same,T/C on day 27,"[1]; A549, 20 mg/kg IV",0.78
same,T/C on day 35,"[1]; A549, 20 mg/kg IV",0.77
same,T/C on day 0,"[1]; A549, 40 mg/kg IV",0.97
same,T/C on day 7,"[1]; A549, 40 mg/kg IV",0.71
same,T/C on day 14,"[1]; A549, 40 mg/kg IV",0.53**
same,T/C on day 21,"[1]; A549, 40 mg/kg IV",0.46**
same,T/C on day 27,"[1]; A549, 40 mg/kg IV",0.52**
same,T/C on day 35,"[1]; A549, 40 mg/kg IV",0.47**
"C[C@H](Nc1c(-c2c(F)cc(OCCCO)cc2F)c(Cl)nc2ncnn12)C(F)(F)F [Example 20, 3-[4-(5-Chloro-7-{[(1S)-2,2,2-trifluoro-1-methylethyl]amino}[1,2,4]triazolo[1,5-a]pyrimidin-6-yl)-3,5-difluorophenoxy]propan-1-ol]",T/C on day 0,[2]; 30 mg/kg PO,1.00
same,T/C on day 7,[2]; 30 mg/kg PO,0.37*
same,T/C on day 14,[2]; 30 mg/kg PO,0.35**
same,T/C on day 21,[2]; 30 mg/kg PO,0.35
same,T/C on day 28,[2]; 30 mg/kg PO,0.28
same,T/C on day 35,[2]; 30 mg/kg PO,0.35
same,T/C on day 0,[2]; 50 mg/kg PO,1.00
same,T/C on day 7,[2]; 50 mg/kg PO,0.27**
same,T/C on day 14,[2]; 50 mg/kg PO,0.46**
same,T/C on day 21,[2]; 50 mg/kg PO,0.33**
same,T/C on day 28,[2]; 50 mg/kg PO,0.29**
same,T/C on day 35,[2]; 50 mg/kg PO,0.31*
same,tumor growth inhibition (activity call),"[2]; orally on days 1, 7 and 14 at 50 and 30 mg/kg",active
"CNCCCOc1cc(F)c(-c2c(Cl)nc3ncnn3c2C2CCCCCC2)c(F)c1.O=C(O)C(F)(F)F [Example 32, 3-[4-(5-Chloro-7-cycloheptyl[1,2,4]triazolo[1,5-a]pyrimidin-6-yl)-3,5-difluorophenoxy]-N-methylpropan-1-amine trifluoroacetic acid salt]",T/C on day 0,[2]; 30 mg/kg PO,1.00
same,T/C on day 7,[2]; 30 mg/kg PO,0.55
same,T/C on day 14,[2]; 30 mg/kg PO,0.68
same,T/C on day 21,[2]; 30 mg/kg PO,0.35
same,T/C on day 28,[2]; 30 mg/kg PO,0.43
same,T/C on day 35,[2]; 30 mg/kg PO,0.53
same,T/C on day 0,[2]; 50 mg/kg PO,1.00
same,T/C on day 7,[2]; 50 mg/kg PO,0.41
same,T/C on day 14,[2]; 50 mg/kg PO,0.44*
same,T/C on day 21,[2]; 50 mg/kg PO,0.27*
same,T/C on day 28,[2]; 50 mg/kg PO,0.31
same,T/C on day 35,[2]; 50 mg/kg PO,0.26
same,tumor growth inhibition (activity call),"[2]; orally on days 1, 7 and 14 at 50 mg/kg",active
